These results are taken from patent US20210401916A1, “COMPOSITION FOR PREVENTION AND TREATMENT OF MUSCULAR DISEASES OR FOR IMPROVEMENT OF MUSCLE FUNCTION CONTAINING 3,5-DICAFFEOYLQUINIC ACID OR CHRYSANTHEMUM EXTRACT” (Industry-Academic Cooperation Foundation, Yonsei University, priority 2016, published 2021).

Common to all, as to type: cell-based
One assay relates to myogenin. The assay can be described thus: myogenin mRNA expression (RT-PCR) during L6 myotube differentiation. The conditions noted are these: L6 muscle cells, 10, 20 or 40 μg/mL during differentiation, FIG. 14. On the procedure:
(§1) To confirm the muscle differentiation-promoting activity of a Chrysanthemum extract in L6 myoblasts (ATCC), which are muscle cells, the cells were treated with the 30% ethanol extract of Chrysanthemum, prepared in Example 1-(2), at 5, 10 or 20 μg/mL to induced myotube differentiation by the same method as described in Experimental Example 1-(6). RT-PCR was performed with specific primers (Bioneer) by the same method as described in Experimental Example 2, and the result is shown in FIG. 9.
(§2) To confirm muscle protein synthesis-promoting activity by treatment of L6 myoblasts (ATCC), which are muscle cells, with 3,5-dicaffeoylquinic acid, the cells were treated with the 3,5-dicaffeoylquinic acid obtained in Example 2 at 10, 20 or 40 μg/mL, and then mRNA expression levels of MyoD and myogenin were confirmed by the same method as described in Experimental Example 4.

The next assay relates to PGC-1α. Briefly: PGC-1α luciferase reporter (pTA-Luc-PGC-1α plasmid) in transfected COS7 cells. As to conditions: treated at 5, 10, 20, 40 or 60 μg/mL, **p<0.01, FIG. 11. As to the method:
To confirm an effect of increasing an expression level of PGC-1α by treatment of COS7 cells with a Chrysanthemum extract, COS7 cells (ATCC) were transfected with a pTA-Luc-PGC-1α plasmid (Addgene) by the same method as described in Experimental Example 1-(1). Here, 10%, 30%, 50%, 70% and 90% ethanol extracts of Chrysanthemum, which were prepared in Example 1-(2), and the hot water extract of Chrysanthemum, which was prepared in Example 1-(5), were treated at 10 μg/mL.
To confirm an effect of increasing an expression level of PGC-1α by treatment of […] (ATCC) with the 95% ethanol extract of Chrysanthemum, the 95% ethanol extract of Chrysanthemum, prepared in Example 1-(2), was treated at 10 or 40 μg/mL by the same method as described in Experimental Example 1-(2).
To confirm an effect of increasing an expression level of PGC-1α by treatment of COS7 cells (ATCC) with 3,5-dicaffeoylquinic acid, the 3,5-dicaffeoylquinic acid obtained in Example 2 was treated at 5, 10, 20, 40 or 60 μg/mL by the same method as described in Experimental Example 1-(2), and the result is shown in FIG. 11.

A further assay concerns MyoD. Briefly: MyoD mRNA expression (RT-PCR) during L6 myotube differentiation. The conditions noted are these: L6 muscle cells, 10, 20 or 40 μg/mL during differentiation, FIG. 14. On the procedure:
as §1, §2

The next assay has as its system atrogin-1. Briefly: atrogin-1 mRNA expression (RT-PCR) in TNF-α-treated L6 myotubes. As to conditions: 50 ng/mL TNF-α, 1 or 10 μg/mL, 6 hours. As to the method:
(§3) L6 myoblasts (ATCC), which are muscle cells, were added at 1×10^5 cell/mL to a 6-well plate with 10% FBS (Gibco)-containing DMEM (Hyclone). When the cell density reached approximately 80 to 85%, the medium in the well was removed, the cells were treated with 2% HS (Hyclone)-containing DMEM (Hyclone) to induce myotube differentiation. The differentiation was performed for total of 6 days by replacing the medium and a sample with fresh ones every two days. After differentiation, the 30% ethanol extract of Chrysanthemum prepared in Example 1-(2) was dissolved in DMEM (Hyclone) containing 50 ng/mL tumor necrosis factor alpha (TNF-α; PeproTech, Rocky Hills, N.J., USA) at 1 or 10 μg/mL, and used to treat the cells. After 6 hours, total RNA was isolated with a TRIzol reagent (Takara, Shiga, Japan). The isolated total RNA was quantified using a NanoDrop 1000 (Thermo Fisher Scientific Inc.). cDNA was synthesized from 16 μL of the quantified RNA using a Reverse Transcriptase Premix (ELPIS-Biotech, Daejeon, Korea) and a PCR machine (Gene Amp PCR System 2700; Applied Biosystems, Foster City, Calif., USA) under conditions of 42° C. for 55 minutes and 70° C. for 15 minutes. […]

Another assay relates to SIRT1. Briefly: SIRT1 luciferase reporter (pTA-Luc-SIRT1 plasmid) in transfected COS7 cells. The conditions noted are these: treated at 20, 40 or 60 μg/mL (5 to 60 μg/mL tested), **p<0.01, FIG. 10. As to the method:
To confirm an effect of increasing an expression level of SIRT1 by treatment of COS7 cells (ATCC) with a Chrysanthemum extract, COS7 cells (ATCC) were transfected with a pTA-Luc-SIRT1 plasmid (Addgene) by the same method as described in Experimental Example 1-(1). Here, the 95% ethanol extract of Chrysanthemum prepared in Example 1-(2) was treated at 20, 30 or 40 μg/mL, and the result is shown in FIG. 4.
To confirm an effect of increasing an expression level of SIRT1 by treatment of COS7 cells (ATCC) with 3,5-dicaffeoylquinic acid, the 3,5-dicaffeoylquinic acid obtained in Example 2 was treated at 5, 10, 20, 40 or 60 μg/mL by the same method as described in Experimental Example 1-(4), and the result is shown in FIG. 10.

A further assay deals with MuRF-1. The assay can be described thus: MuRF-1 mRNA expression (RT-PCR) in TNF-α-treated L6 myotubes. As to conditions: 50 ng/mL TNF-α, 1 or 10 μg/mL, 6 hours. As to the method:
as §3

Another assay relates to p-mTOR. The assay can be described thus: p-mTOR protein expression (western blot) in TNF-α-treated L6 myotubes. The conditions noted are these: 1 or 10 μg/mL, 24 hours. As to the method:
To confirm the muscle protein expression-increasing activity of a Chrysanthemum extract in L6 myoblasts (ATCC), which are muscle cells, after differentiation by the same method as described in Experimental Example 2, a sample was treated with the 30% ethanol extract of Chrysanthemum prepared in Example 1-(2) at 1 or 10 μg/mL. The samples were treated for 24 hours, and then the cells were dissolved in an NP-40 buffer solution (ELPIS-Biotech) containing a proteinase inhibitor cocktail (Sigma, St. Louis, Mo., USA). The cells dissolved in the buffer solution were transferred to a 1.5 mL tube for centrifugation at 13,000 rpm for 10 minutes, and then only a supernatant was taken. The supernatant obtained previously was quantified by a Bradford method (Bio-Rad Laboratories Inc., Hercules, Calif., USA). The quantified protein was boiled for 5 minutes and isolated by electrophoresis with a 10% SDS-PAGE gel, and then the isolated proteins were transferred to a nitrocellulose membrane. p-mTOR, mTOR, p-4EBP1, 4EBP1, p-P70S6K and P70S6K and an α-tubulin primary antibody were diluted in 2.5% bovine serum albumin (BSA; bioWORLD, Dublin, Ohio, USA) at a ratio of 1:1000, and the proteins which were transferred to a nitrocellulose membrane were reacted at room temperature for 20 hours. […]

Take `O=C(/C=C/c1ccc(O)c(O)c1)O[C@@H]1CC(O)(C(=O)O)C[C@@H](OC(=O)/C=C/c2ccc(O)c(O)c2)C1O` (stereo partly drawn) [3,5-dicaffeoylquinic acid, (3R,5R)-3,5-bis[[(E)-3-(3,4-dihydroxyphenyl)prop-2-enoyl]oxy]-1,4-dihydroxycyclohexane-1-carboxylic acid]: in the assay with myogenin, the “mRNA expression level of myogenin” value is recorded as “increased in a concentration-dependent manner”. The “expression level of PGC-1α” value with PGC-1α was “significantly increased”. In addition, the “mRNA expression level of MyoD” value with MyoD is listed as “increased in a concentration-dependent manner”. Moreover, in the assay with atrogin-1, the “mRNA expression level of atrogin-1 increased by TNF-α” value is recorded as “decreased in a concentration dependent manner”. Moreover, the “expression level of SIRT1” value in the assay with SIRT1 is listed as “significantly increased”. For the same molecule, the “mRNA expression level of MuRF-1 increased by TNF-α” value with MuRF-1 is reported as “decreased in a concentration dependent manner”. Moreover, in the assay with p-mTOR, the “p-mTOR protein expression level reduced by TNF-α” value is on record as “increased in a concentration-dependent manner”.
